# Laboratory results reported in article PMC8744835, “Sterically Hindered Quaternary Phosphonium Salts (QPSs): Antimicrobial Activity and Hemolytic and Cytotoxic Properties” (International Journal of Molecular Sciences, 2021).
# Experiments:
# [1] = system: Escherichia coli ATCC 25922; assay: Antimicrobial activity, serial dilution technique in Mueller–Hinton Broth 2; type: cell-based; conditions: average of three ± SD, - means non-active; for MBC: Escherichia coli, ATCC25922, Ec, read-out: Minimum Bactericidal and Fungicidal Concentration (MBC, MFC), Ec
# [2] = system: Staphylococcus aureus ATCC 6538P FDA 209P; assay: as above; type: cell-based; conditions: average of three ± SD, - means non-active; for MBC: read-out: Minimum Bactericidal and Fungicidal Concentration (MBC, MFC), Sa
# Method in brief: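 Using a broth serial dilution method in Mueller–Hinton Broth 2, S. aureus ATCC 6538P FDA 209P (3.0 × 10^5 cfu/mL) was exposed to compounds at 37 °C and observed daily over 5 days. MIC was the lowest concentration preventing growth; bacteriostatic absence of growth was also noted, with three replicate experiments.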
# [3] = system: Escherichia coli ATCC 25922; assay: as above; type: cell-based; conditions: average of three ± SD, - means non-active; for MIC: Escherichia coli, ATCC25922, Ec, read-out: Minimum Inhibitory Concentration (MIC), Ec
# Method in brief: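 Growth inhibition is scored in Mueller–Hinton Broth 2 dilution series seeded with 3.0 × 10^5 cfu/mL and held at 37 °C for up to 5 days. Values reported are MICs, the lowest concentration without growth.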
# [4] = system: Bacillus cereus ATCC 10702 NCTC 8035; assay: as above; type: cell-based; conditions: average of three ± SD, - means non-active; for MIC: read-out: Minimum Inhibitory Concentration (MIC), Bc
# Method in brief: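 Compounds were serially diluted in Mueller–Hinton Broth 2 and inoculated with the Gram-positive strain Bacillus cereus ATCC 10702 NCTC 8035 at 3.0 × 10^5 cfu/mL, then incubated at 37 °C. Observations were taken every 24 h over 5 days in three repeat experiments. The MIC was the lowest concentration that stopped growth, with bacteriostatic absence of growth also noted.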
# [5] = system: Enterococcus faecalis ATCC 2921; assay: as above; type: cell-based; conditions: average of three ± SD, - means non-active; for MIC / MBC: Enterococcus faecalis, ATCC2921, Ef; for MIC: read-out: Minimum Inhibitory Concentration (MIC), Ef; for MBC: read-out: Minimum Bactericidal and Fungicidal Concentration (MBC, MFC), Ef
# Method in brief: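 Antibacterial activity against Enterococcus faecalis ATCC 2921 was assessed by serial dilution in Mueller–Hinton Broth 2 with a bacterial load of 3.0 × 10^5 cfu/mL. Cultures were incubated at 37 °C, with growth recorded every 24 h for 5 days, and the experiment was performed three times.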
# human erythrocytes = assay: Hemolytic activity; type: cell-based; conditions: red blood cells
# Excerpt: An important characteristic when assessing the biological activity of new chemical compounds is their cytotoxic effect on eukaryotic cells. The ability of an investigated compound to cause the destruction of human erythrocytes illustrates its toxic effect on the internal environment. The hemolysis assay is a simple screening test that can help in the study of cytotoxicity in more complex models. Cell lines obtained from various human organs and tissues that allow for adequate estimation of the effects of new potential drugs on cell metabolism can serve as experimental models.
# The hemolytic activity of the QPSs was estimated by comparing the optical density of a solution containing the test compound with that of blood at 100% hemolysis. The experiments were carried out as previously described.
# Chang liver cell line = assay: Cytotoxicity assay (Cytell Cell Imaging, DAPI/propidium iodide); type: cell-based, human; conditions: for IC50: Homo sapiens, Chang liver, read-out: IC50 (concentration that causes the death of 50% of the cells), Chang liver cells; for IC50 (concentration that causes the death of 50% of the cells): Chang liver cells
# [6] = system: methicillin-resistant S. aureus MRSA-2; assay: Antimicrobial activity, serial dilution technique in Mueller–Hinton Broth 2; type: cell-based, Staphylococcus aureus; conditions: - means non-active; for MIC / Minimum Inhibitory Concentration (MIC), MRSA-2: MRSA-2 (resistant to beta-lactams); for MIC: read-out: Minimum Inhibitory Concentration (MIC), MRSA-2
# Method in brief: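 Antimicrobial activity against methicillin-susceptible Staphylococcus aureus MRSA-2, a beta-lactam-resistant clinical isolate from a sinusitis patient at the Republican Clinical Hospital (Kazan), was assessed by serial dilution in Mueller–Hinton Broth 2. The inoculum was 3.0 × 10^5 cfu/mL. Cultures were incubated at 37 °C and read every 24 h for 5 days, in three repeat experiments.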
# [7] = system: methicillin-resistant S. aureus MRSA-1; assay: as above; type: cell-based, Staphylococcus aureus; conditions: - means non-active; for MIC: read-out: Minimum Inhibitory Concentration (MIC), MRSA-1
# Method in brief: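 Antimicrobial activity against methicillin-susceptible Staphylococcus aureus MRSA-1, a hospital isolate from a chronic tonsillitis patient that is resistant to fluoroquinolones and beta-lactams, was determined by serial dilution in Mueller–Hinton Broth 2. The bacterial load was 3.0 × 10^5 cfu/mL, incubation was at 37 °C, and growth was recorded every 24 h for 5 days.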
# [8] = system: Candida albicans ATCC 10231; assay: Fungicidal activity, serial dilution technique; type: cell-based; conditions: average of three ± SD, - means non-active
# Method in brief: (§1)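 Broth serial dilution in Mueller–Hinton Broth 2 at 3.0 × 10^5 cfu/mL, incubated at 37 °C with growth scored every 24 h for 5 days. MIC taken as lowest concentration inhibiting growth; three repeats.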
# [9] = system: Trichophyton mentagrophytes var. gypseum 1773; assay: Fungicidal activity, serial dilution technique; type: cell-based; conditions: Tm, average of three ± SD, - means non-active
# Method in brief: as §1
# [10] = Staphylococcus aureus, MRSA, MRSA-1 (resistant to fluoroquinolones and beta-lactams)
SMILES,MBC [1] [µg/mL],"MBC ([2]; Staphylococcus aureus, Sa) [µg/mL]",MIC [3] [µg/mL],"MIC ([4]; Bacillus cereus, Bc) [µg/mL]",MIC [5] [µg/mL],HC50 (concentration that causes 50% hemolysis of erythrocytes) (human erythrocytes) [µg/mL],IC50 (Chang liver cell line) [µg/mL],"MIC ([6]; Staphylococcus aureus, MRSA) [µg/mL]",MBC [5] [µg/mL],"MIC [7, 10] [µg/mL]","Minimum Bactericidal and Fungicidal Concentration (MBC, MFC), Ec [1] [µg/mL]","Minimum Bactericidal and Fungicidal Concentration (MBC, MFC), Sa [2] [µg/mL]","Minimum Inhibitory Concentration (MIC), Ec [3] [µg/mL]","Minimum Inhibitory Concentration (MIC), Bc [4] [µg/mL]","Minimum Bactericidal and Fungicidal Concentration (MBC, MFC), Ef [5] [µg/mL]","Minimum Inhibitory Concentration (MIC), Ef [5] [µg/mL]",IC50 (concentration that causes the death of 50% of the cells) (Chang liver cell line) [µg/mL],"Minimum Inhibitory Concentration (MIC), MRSA-2 [6] [µg/mL]","Minimum Inhibitory Concentration (MIC), Sa [2] [µg/mL]","Minimum Bactericidal and Fungicidal Concentration (MBC, MFC), Bc [4] [µg/mL]",also measured
CCCCCCCC[P+](C(C)(C)C)(C(C)(C)C)C(C)(C)C [Compound 8a],125,62.5,125,31.3,62.5,> 125,> 100,31.3,–,–,–,–,–,–,–,–,–,–,–,–,–
CCCCCCCCC[P+](C(C)(C)C)(C(C)(C)C)C(C)(C)C [Compound 9a],125,15.6,125,–,62.5,> 125,> 100,–,125,7.8,–,–,–,–,–,–,–,–,–,–,"MIC ([2]; Staphylococcus aureus, Sa, read-out: Minimum Inhibitory Concentration (MIC), Sa): 7.8 µg/mL; MBC ([4]; Bacillus cereus, Bc, read-out: Minimum Bactericidal and Fungicidal Concentration (MBC, MFC), Bc): 125 µg/mL"
CCCCCCCCC[P+](C(C)(C)C)(C(C)(C)C)C(C)(C)C [Compound 9b],–,–,–,–,–,> 125,–,–,–,–,250,15.6,250,31.3,125,31.3,> 100,31.3,–,–,–
CCCCCCCCCC[P+](C(C)(C)C)(C(C)(C)C)C(C)(C)C [Compound 10a],31.3 ± 2.6,–,31.3 ± 2.7,3.9 ± 0.2,7.8 ± 0.6,> 125,66,3.9 ± 0.2,7.8 ± 0.6,1.9 ± 0.1,–,1.9 ± 0.1,–,–,–,–,–,–,1.9 ± 0.1,31.3 ± 2.5,"MBC ([8]; Candida albicans, ATCC10231, Ca, read-out: Minimum Bactericidal and Fungicidal Concentration (MBC, MFC), Ca): 31.3 ± 2.3 µg/mL; MIC ([8]; Candida albicans, ATCC10231, Ca, read-out: Minimum Inhibitory Concentration (MIC), Ca): 31.3 ± 2.6 µg/mL; MBC ([9]; Trichophyton mentagrophytes, read-out: Minimum Bactericidal and Fungicidal Concentration (MBC, MFC), Tm): 125 ± 11 µg/mL; MIC ([9]; Trichophyton mentagrophytes, read-out: Minimum Inhibitory Concentration (MIC), Tm): 125 ± 11 µg/mL; MBC ([7]; Staphylococcus aureus, MRSA, MRSA-1, read-out: Minimum Bactericidal and Fungicidal Concentration (MBC, MFC), MRSA-1): 15.6 ± 1.2 µg/mL; MBC ([6]; Staphylococcus aureus, MRSA, MRSA-2, read-out: Minimum Bactericidal and Fungicidal Concentration (MBC, MFC), MRSA-2): 3.9 ± 0.2 µg/mL"
CCCCCCCCCC[P+](C(C)(C)C)(C(C)(C)C)C(C)(C)C [Compound 10b],–,–,–,–,–,> 125,–,–,–,–,62.5 ± 5.5,3.9 ± 0.2,62.5 ± 5.4,7.8 ± 0.6,15.6 ± 1.2,15.6 ± 1.3,71,3.9 ± 0.2,3.9 ± 0.2,125 ± 9,"Minimum Bactericidal and Fungicidal Concentration (MBC, MFC), Ca ([8]; Ca): 31.3 ± 2.2 µg/mL; Minimum Inhibitory Concentration (MIC), Ca ([8]; Ca): 31.3 ± 2.4 µg/mL; Minimum Bactericidal and Fungicidal Concentration (MBC, MFC), Tm [9]: 125 ± 10 µg/mL; Minimum Inhibitory Concentration (MIC), Tm [9]: 125 ± 10 µg/mL; Minimum Inhibitory Concentration (MIC), MRSA-1 ([7]; MRSA-1 (resistant to fluoroquinolones and beta-lactams)): 1.9 ± 0.1 µg/mL; Minimum Bactericidal and Fungicidal Concentration (MBC, MFC), MRSA-1 ([7]; MRSA-1): 15.6 ± 1.3 µg/mL; Minimum Bactericidal and Fungicidal Concentration (MBC, MFC), MRSA-2 ([6]; MRSA-2): 7.8 ± 0.6 µg/mL"
